# Data: US20240391931A1 (Bristol-Myers Squibb Company, priority 2021, published 2024)
# How the values were obtained:
# EGFR WT = target: T1, EGFR WT (Homo sapiens, UniProt P00533); assay: Enzymatic assay EGFR WT (method c); type: biochemical; details: [EGFR WT]=2 nM, [ATP]=1 mM, [Peptide 22]=1 μM
# T1 construct: purchased Thermo Fisher, Carlsbad, CA ERBB1 PR7295B
# Procedure: (§1) A 2× stock solution of HER2 WT (ERBB2 0108-0000-1; ProQinase, Freiburg, Germany) corresponding to method a, was prepared as described below. Alternatively, a 2× stock solution of HER2YVMA (custom purification; Viva biotech, Shanghai, China) corresponding to method b, was prepared as described below. For method c, a 2× stock of EGFR (ERBB1 PR7295B, Thermo Fisher, Carlsbad, CA) was prepared as described below. All 2× solutions were prepared in buffer containing 50 mM HEPES, pH 7.5, 10 mM MnCl2, MgCl2, 0.005% Tween 20, 1 mM TCEP. 25 ul of 2× enzyme solution was added to a Seahorse low volume 384-well polypropylene assay plate (201288-100, Seahorse Bioscience, Chicopee, MA) containing 1 μl of compound serially diluted in 50% DMSO. To initiate the reaction, 25 μl of solution containing 2× final concentration of ATP and ProfilerPro Peptide 22 (760366, Perkin Elmer Hopkinton, MA) was added to each well. The reactions were separated on an LC3000 (Caliper Life Sciences) or a LabChip EZReader (Perkin Elmer) in kinetic mode.
# (§2) At the conclusion of each assay, the data were exported from the instrument as a .rda file (LC3000) and processed in proprietary software, EZReviewer, which determines the percent of substrate converted to product within a given cycle as (P/P+S)*100 by measuring the amplitude of substrate and product peaks. Cycle time varied with amount of compounds tested between 8 and 12 cycles. Initial velocity (0-3600 s) from each reaction was determined from the slope of a plot of percent conversion at each cycle versus time (seconds). Percent inhibition was determined by dividing the slope of each reaction by the uninhibited control using 100*(1-(x/uninhibited control)). IC50 estimates were obtained by plotting the concentration of inhibitor versus percent inhibition in GraphPad Prism (GraphPad Software, San Diego, CA) using log[inhibitor] versus Response (Variable Slope Model); Y=Min+((Max-Min)/(1+((IC50/x)^Hillslope)))
# (§3) • a) [HER2 WT]=12.5 nM, [ATP]=25 μM, [Peptide 22]=1 μM (ATP KMapp˜25 μM) • b) [HER2YVMA]=5 nM, [ATP]=25 μM, [Peptide 22]=1 μM (ATP KMapp˜15 μM) • c) [EGFR WT]=2 nM, [ATP]=1 mM, [Peptide 22]=1 μM (ATP KMapp˜25 μM)
# EGFR = EGFR (Homo sapiens, UniProt P00533); assay: EGFR signaling (pEGFR Tyr1068/total EGFR MSD) in A431 cells; type: cell-based; set-up: endogenous in cells; host or cells: A431, N87; details: for EC50: A431 cells, read-out: A431 pEGFR EC50; for Selectivity A431 EC50/BT474 EC50: ratio A431 pEGFR EC50 to BT474 pHER2 EC50; for Selectivity A431 EC50/HEKYVMA EC50: ratio A431 pEGFR EC50 to HEK YVMA pHER2 EC50
# Sequence of EGFR (P00533 25-1210): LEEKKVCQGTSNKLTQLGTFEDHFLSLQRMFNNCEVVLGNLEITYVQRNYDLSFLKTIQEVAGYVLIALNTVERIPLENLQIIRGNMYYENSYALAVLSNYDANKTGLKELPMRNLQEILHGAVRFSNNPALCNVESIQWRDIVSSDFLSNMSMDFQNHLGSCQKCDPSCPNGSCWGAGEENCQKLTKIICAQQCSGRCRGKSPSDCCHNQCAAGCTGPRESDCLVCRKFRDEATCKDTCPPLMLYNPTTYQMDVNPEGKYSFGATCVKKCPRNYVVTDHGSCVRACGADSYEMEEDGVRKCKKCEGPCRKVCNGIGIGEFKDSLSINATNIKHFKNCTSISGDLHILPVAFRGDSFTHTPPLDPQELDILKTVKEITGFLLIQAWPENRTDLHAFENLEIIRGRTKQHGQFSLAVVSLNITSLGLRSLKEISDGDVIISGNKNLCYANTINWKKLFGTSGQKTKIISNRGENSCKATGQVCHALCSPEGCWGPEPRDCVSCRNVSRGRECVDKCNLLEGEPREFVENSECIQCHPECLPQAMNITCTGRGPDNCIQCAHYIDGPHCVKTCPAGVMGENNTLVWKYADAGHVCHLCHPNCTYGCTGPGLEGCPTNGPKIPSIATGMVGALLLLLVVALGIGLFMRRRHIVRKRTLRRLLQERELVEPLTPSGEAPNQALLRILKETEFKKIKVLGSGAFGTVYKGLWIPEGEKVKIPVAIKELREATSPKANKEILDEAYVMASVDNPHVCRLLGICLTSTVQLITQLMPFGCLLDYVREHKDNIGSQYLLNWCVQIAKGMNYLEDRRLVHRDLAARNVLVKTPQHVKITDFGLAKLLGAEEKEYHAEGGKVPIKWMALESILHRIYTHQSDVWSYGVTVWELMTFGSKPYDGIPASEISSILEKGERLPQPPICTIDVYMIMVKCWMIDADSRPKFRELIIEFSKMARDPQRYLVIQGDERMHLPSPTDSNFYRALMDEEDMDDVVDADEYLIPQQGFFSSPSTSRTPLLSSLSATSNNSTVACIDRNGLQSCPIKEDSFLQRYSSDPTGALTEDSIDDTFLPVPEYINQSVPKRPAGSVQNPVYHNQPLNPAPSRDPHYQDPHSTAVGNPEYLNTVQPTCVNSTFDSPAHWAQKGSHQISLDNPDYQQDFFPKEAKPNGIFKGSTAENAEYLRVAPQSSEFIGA
# Procedure: In addition to the engineered cell lines, the following cell lines were used: BT474 (human breast carcinoma), N87 (human gastric carcinoma), NCI-H1781 (human lung adenocarcinoma), and A431 (human epidermoid carcinoma); all cell lines were obtained from the American Type Culture Collection (ATCC, Manassas, VA). NCI-H1781 were grown in complete RPMI 1640 (Life Technologies, Carlsbad, CA) supplemented with 15% fetal bovine serum (FBS, Life Technologies, Carlsbad, CA) and 1% Penicillin-Streptomycin (P/S, Life Technologies, Carlsbad, CA). N87 cells were grown in complete RPMI 1640 supplemented with 10% FBS and 1% P/S. BT474 and A431 cells were grown in DMEM (Life Technologies, Carlsbad, CA) supplemented with 10% FBS and 1% P/S. All cells were maintained and propagated in a humidified 5% CO2 incubator at 37° C.
# A431 Cells were plated in 96-well tissue-culture treated plates in full media for 6 h, then starved with media containing 0.1% FBS for overnight. Media was replaced with low serum media (1% FBS) containing compound at 10, 3.3, 1.1, 0.37, 0.12, 0.041, 0.014, 0.005 μM or DMSO control (0.1%). Cells were incubated for 1.5 hr, then stimulated with 100 ng/mL human EGF (PeproTech, Rocky Hill, NJ) for 10 minutes. Cells were washed with cold PBS, and lysed for 30 min on ice in complete MSD lysis buffer (prepared as described in HER2 Signaling Method); lysates were stored at −70° C. until further analysis. EGFR signaling was evaluated using phospho (Tyr 1068)/total EGFR whole cell lysate kit (Meso-Scale Discovery, Gaithersburg, MD). The phospho EGFR signal was normalized to total EGFR for each sample; results are reported as % DMSO control. The normalized data was fitted using a sigmoidal curve analysis program (Graph Pad Prism version 6) with variable Hill slope to determine EC50 values. The results are provided in Table 4, under column titled “A431-pEGFR EC50”.
# HER2 WT = target: T2, HER2 WT (Homo sapiens, UniProt P04626); assay: Enzymatic assay HER2 WT (method a); type: biochemical; details: [HER2 WT]=12.5 nM, [ATP]=25 μM, [Peptide 22]=1 μM
# T2 construct: purchased ProQinase, Freiburg, Germany ERBB2 0108-0000-1
# T2 sequence (P04626 23-1255): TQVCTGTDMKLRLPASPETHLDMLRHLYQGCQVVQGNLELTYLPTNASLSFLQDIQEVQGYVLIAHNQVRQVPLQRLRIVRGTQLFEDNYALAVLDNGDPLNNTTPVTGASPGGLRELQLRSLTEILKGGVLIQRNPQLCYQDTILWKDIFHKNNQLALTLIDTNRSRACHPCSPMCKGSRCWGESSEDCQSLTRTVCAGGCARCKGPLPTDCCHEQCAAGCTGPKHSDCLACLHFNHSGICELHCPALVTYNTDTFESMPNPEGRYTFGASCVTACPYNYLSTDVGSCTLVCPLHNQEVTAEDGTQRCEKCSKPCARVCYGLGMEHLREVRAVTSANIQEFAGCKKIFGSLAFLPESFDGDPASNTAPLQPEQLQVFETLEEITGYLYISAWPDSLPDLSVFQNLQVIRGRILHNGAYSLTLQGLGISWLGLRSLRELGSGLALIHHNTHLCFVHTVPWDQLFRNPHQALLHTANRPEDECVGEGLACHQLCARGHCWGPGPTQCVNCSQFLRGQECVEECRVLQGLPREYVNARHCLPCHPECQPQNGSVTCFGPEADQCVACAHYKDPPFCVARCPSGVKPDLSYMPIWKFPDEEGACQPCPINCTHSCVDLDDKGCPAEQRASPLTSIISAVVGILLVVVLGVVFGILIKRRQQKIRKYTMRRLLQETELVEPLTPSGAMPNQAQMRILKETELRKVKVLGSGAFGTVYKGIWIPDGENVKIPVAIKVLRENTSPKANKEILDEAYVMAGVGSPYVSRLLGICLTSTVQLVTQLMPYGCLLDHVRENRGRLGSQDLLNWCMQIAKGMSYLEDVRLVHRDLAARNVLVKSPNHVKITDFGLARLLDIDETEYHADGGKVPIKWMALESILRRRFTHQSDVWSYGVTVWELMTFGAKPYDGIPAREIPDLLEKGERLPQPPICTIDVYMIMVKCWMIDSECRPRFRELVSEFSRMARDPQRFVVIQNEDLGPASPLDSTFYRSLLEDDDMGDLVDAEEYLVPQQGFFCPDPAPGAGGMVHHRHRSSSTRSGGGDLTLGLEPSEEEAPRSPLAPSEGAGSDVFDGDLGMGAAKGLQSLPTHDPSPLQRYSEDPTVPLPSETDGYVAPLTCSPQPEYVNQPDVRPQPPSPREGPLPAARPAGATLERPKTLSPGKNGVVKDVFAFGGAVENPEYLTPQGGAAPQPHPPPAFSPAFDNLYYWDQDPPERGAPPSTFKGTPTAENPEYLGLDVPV
# Procedure: as §1, §2, §3
# T1 sequence (P00533 25-1210): as the sequence (P00533 25-1210) above
SMILES,IC50 (EGFR WT),EC50 (EGFR),Selectivity A431 EC50/BT474 EC50 (EGFR),Selectivity A431 EC50/HEKYVMA EC50 (EGFR),IC50 (HER2 WT)
"Cc1ccc(Oc2ccc(Nc3ncnc4sc5c(c34)C(C)CN(C(=O)C=CCN(C)C(C)(C)C)C5)cc2C)cn1 (single isomer, unassigned) [Compound 178]",> 10000 nM,100 to 1000 nM,D (D: ≥ 5 and < 10),E (E: >1 and < 5),100 to 1000 nM
"Cc1ccc(Oc2ccc(Nc3ncnc4sc5c(c34)C(C)CN(C(=O)C=CCN(C)C(C)(C)C)C5)cc2C)cn1 (single isomer, unassigned) [Compound 179]",> 10000 nM,< 100 nM,B (B: ≥ 20 and < 100),E (E: >1 and < 5),< 100 nM
"C=CC(=O)N1CCc2c(sc3ncnc(Nc4ccc(Oc5cccnc5)c(Cl)c4)c23)C1 [Compound 6, 1-(4-((3-chloro-4-(pyridin-3-yloxy)phenyl)amino)-5,8-dihydropyrido[4′,3′:4,5]thieno[2,3-d]pyrimidin-7(6H)-yl)prop-2-en-1-one]",> 10000 nM,< 100 nM,E (E: >1 and < 5),E (E: >1 and < 5),< 100 nM
"COc1cc(Nc2ncnc3sc4c(c23)CCN(C(=O)/C=C/CN(C)C)C4)ccc1Oc1ccccc1 [Compound 7, (E)-4-(dimethylamino)-1-(4-((3-methoxy-4-phenoxyphenyl)amino)-5,8-dihydropyrido[4′,3′:4,5]thieno[2,3-d]pyrimidin-7(6H)-yl)but-2-en-1-one]",> 10000 nM,< 100 nM,D (D: ≥ 5 and < 10),F (F: < 1),< 100 nM
"Cc1ccc(Oc2ccc(Nc3ncnc4sc5c(c34)CCN(C(=O)/C=C/CN(C)C)C5)cc2C)cn1 [Compound 8, (E)-4-(Dimethylamino)-1-(4-((3-methyl-4-((6-methylpyridin-3-yl)oxy)phenyl)amino)-5,6-dihydropyrido[4′,3′:4,5]thieno[2,3-d]pyrimidin-7(8H)-yl)but-2-en-1-one]",1000 to 10000 nM,< 100 nM,C (C: ≥ 10 and < 20),C (C: ≥ 10 and < 20),< 100 nM
"C=CC(=O)N1CCc2c(sc3ncnc(Nc4ccc(Oc5cccnc5)c(C)c4)c23)C1 [Compound 11, 1-(4-((3-methyl-4-(pyridin-3-yloxy)phenyl)amino)-5,8-dihydropyrido[4′,3′:4,5]thieno[2,3-d]pyrimidin-7(6H)-yl)prop-2-en-1-one]",1000 to 10000 nM,< 100 nM,E (E: >1 and < 5),E (E: >1 and < 5),< 100 nM
Cc1cc(Nc2ncnc3sc4c(c23)CCN(C(=O)/C=C/CN2CCOCC2)C4)ccc1Oc1ccc2ncnn2c1 [Compound 12],> 10000 nM,1000 to 10000 nM,A (A: ≥100),B (B: ≥ 20 and < 100),< 100 nM
Cc1ccc(Oc2ccc(Nc3ncnc4sc5c(c34)CCN(C(=O)/C=C/CN3CC4CCC(C3)O4)C5)cc2C)cn1 [Compound 13],> 10000 nM,100 to 1000 nM,C (C: ≥ 10 and < 20),C (C: ≥ 10 and < 20),< 100 nM
Cc1ccc(Oc2ccc(Nc3ncnc4sc5c(c34)CCN(C(=O)/C=C/CN3CC4CCC3C4)C5)cc2C)cn1 (centres unmarked) [Compound 14],> 10000 nM,< 100 nM,D (D: ≥ 5 and < 10),E (E: >1 and < 5),< 100 nM
Cc1ccc(Oc2ccc(Nc3ncnc4sc5c(c34)CCN(C(=O)/C=C/CN3CC4CC(C3)O4)C5)cc2C)cn1 [Compound 15],> 10000 nM,100 to 1000 nM,B (B: ≥ 20 and < 100),B (B: ≥ 20 and < 100),< 100 nM
